Data from PMC11114116 (Molecular Pharmacology, 2024).
Read-outs that look alike come from different tables or passages of the source.

Assays:
human FABP1 (hFABP1) = target: T1, human FABP1 (hFABP1) (Homo sapiens, UniProt P07148); test: DAUDA displacement assay for hFABP1 binding; conditions: for Fres (% Fluorescence Remaining): residual DAUDA-FABP1 fluorescence at saturating ligand (Min of eq. 7); for Maximum decrease of DAUDA-FABP1 fluorescence at saturation: 0.3 μM FABP1, 0.5 μM DAUDA
T1 sequence (P07148 1-127): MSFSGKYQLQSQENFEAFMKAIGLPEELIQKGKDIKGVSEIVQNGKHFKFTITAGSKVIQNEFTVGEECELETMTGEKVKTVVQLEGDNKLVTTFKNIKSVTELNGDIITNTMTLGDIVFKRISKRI

CYP2C9 = CYP2C9 (Homo sapiens, UniProt P11712); format: in vitro ADME
FABP2 = conditions: ref Patil et al., 2014; cited from earlier work

CYP2C9, sequence (P11712 whole entry): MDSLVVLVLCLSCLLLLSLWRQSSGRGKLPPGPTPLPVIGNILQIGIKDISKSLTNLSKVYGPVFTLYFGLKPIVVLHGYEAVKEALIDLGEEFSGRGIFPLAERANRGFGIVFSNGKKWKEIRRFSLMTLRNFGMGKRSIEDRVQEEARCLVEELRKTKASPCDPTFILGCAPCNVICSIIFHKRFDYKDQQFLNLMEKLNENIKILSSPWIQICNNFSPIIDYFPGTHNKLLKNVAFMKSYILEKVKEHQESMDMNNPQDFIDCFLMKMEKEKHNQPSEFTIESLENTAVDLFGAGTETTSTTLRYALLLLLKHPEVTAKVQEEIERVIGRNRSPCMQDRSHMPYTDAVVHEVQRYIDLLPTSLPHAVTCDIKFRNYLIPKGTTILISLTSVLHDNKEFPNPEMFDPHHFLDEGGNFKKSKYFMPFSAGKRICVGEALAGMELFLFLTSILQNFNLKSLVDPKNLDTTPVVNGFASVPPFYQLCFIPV

Compound	Fres (% Fluorescence Remaining) (human FABP1 (hFABP1)) [%]	EC50 (human FABP1 (hFABP1)) [µM]	further results
CCCCC/C=C\C/C=C\C/C=C\C/C=C\CCCC(=O)O [Arachidonic Acid, arachidonic acid]	2.2 ± 3.6	0.42 ± 0.11	
O=C(O)Cc1ccccc1Nc1c(Cl)cccc1Cl [Diclofenac, diclofenac]	15 ± 3.0		Maximum decrease of DAUDA-FABP1 fluorescence at saturation (human FABP1 (hFABP1)): > 82%; Maximum decrease of DAUDA-FABP1 fluorescence at saturation (human FABP1 (hFABP1); listed as diclofenac): ~85%; Km at 10 min (CYP2C9; CYP2C9 Supersomes (recombinant CYP2C9) with 20 μM hFABP1, pH 7.4, Km,apparent for 4'-OH-diclofenac formation, +FABP1, nominal diclofenac concentrations, 20 μM hFABP1, 1 nM CYP2C9 Supersomes): 5.8 ± 1.5 µM; Km at 10 min (CYP2C9; CYP2C9 Supersomes (recombinant CYP2C9), without hFABP1, pH 7.4, Km,apparent for 4'-OH-diclofenac formation, −FABP1, nominal diclofenac concentrations, absence of FABP1, 1 nM CYP2C9 Supersomes): 1.4 ± 0.2 µM
CC(C)Cc1ccc(C(C)C(=O)O)cc1 (centres unmarked) [Ibuprofen, ibuprofen]	28 ± 4.9		
CCc1ccc(CCOc2ccc(CC3SC(=O)NC3=O)cc2)nc1 (centres unmarked) [Pioglitazone, pioglitazone]	5.2 ± 2.4		Maximum decrease of DAUDA-FABP1 fluorescence at saturation (human FABP1 (hFABP1)): > 82%
C[C@@H](C(=O)O)c1ccc(-c2ccccc2)c(F)c1 [R-Flurbiprofen, (R)-flurbiprofen]	40 ± 1.6		
Cc1ccc(C)c(OCCCC(C)(C)C(=O)O)c1 [Gemfibrozil, gemfibrozil]	18 ± 2.8	5.6 ± 1.7	Maximum decrease of DAUDA-FABP1 fluorescence at saturation (human FABP1 (hFABP1)): > 82%
O=C(c1ccccc1)c1ccc2n1CCC2C(=O)O (centres unmarked) [Ketorolac, ketorolac]			Displacement of fluorescent probe ANS from FABP2 (FABP2): did not displace
CNCCC(Oc1ccc(C(F)(F)F)cc1)c1ccccc1 (centres unmarked) [fluoxetine]			Decrease of DAUDA fluorescence in initial screen (human FABP1 (hFABP1); drug at 30 μM, 0.3 μM FABP1 prebound with 0.5 μM DAUDA): All of the drugs tested except fluoxetine decreased DAUDA fluorescence
CC(C(=O)O)c1ccc(-c2ccccc2)c(F)c1 (centres unmarked) [flurbiprofen]			Kd (human FABP1 (hFABP1)): 2 to 10 µM

Continued, in another order:

Fres (% Fluorescence Remaining) (human FABP1 (hFABP1)) [%]	EC50 (human FABP1 (hFABP1)) [µM]	Compound	further results
48 ± 1.1		C[C@H](C(=O)O)c1ccc(-c2ccccc2)c(F)c1 [S-Flurbiprofen, (S)-flurbiprofen]	
	> 40	CCCCNC(=O)NS(=O)(=O)c1ccc(C)cc1 [Tolbutamide, tolbutamide]	
	> 40	Nc1ccc(S(=O)(=O)Nc2ccnn2-c2ccccc2)cc1 [Sulfaphenazole, sulfaphenazole]	
